The record followed here is paper PMC7530128 (Journal of the American Chemical Society, 2020).

One assay has as its target T1, CblD (Homo sapiens, UniProt Q9H3L0).
T1 sequence (Q9H3L0 1-296): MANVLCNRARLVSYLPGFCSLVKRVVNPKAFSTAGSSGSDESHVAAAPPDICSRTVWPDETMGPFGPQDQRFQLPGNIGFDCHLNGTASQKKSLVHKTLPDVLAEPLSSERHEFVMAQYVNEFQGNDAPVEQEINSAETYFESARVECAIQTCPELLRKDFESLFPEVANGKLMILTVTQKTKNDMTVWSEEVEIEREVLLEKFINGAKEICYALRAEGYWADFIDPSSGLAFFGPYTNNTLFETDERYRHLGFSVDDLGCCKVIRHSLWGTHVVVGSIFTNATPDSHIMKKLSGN
The assay is described as follows: UV-visible titration. It counts as binding.

In another assay the target is T2, CblC (Homo sapiens, UniProt Q9Y4U1).
T2 chain: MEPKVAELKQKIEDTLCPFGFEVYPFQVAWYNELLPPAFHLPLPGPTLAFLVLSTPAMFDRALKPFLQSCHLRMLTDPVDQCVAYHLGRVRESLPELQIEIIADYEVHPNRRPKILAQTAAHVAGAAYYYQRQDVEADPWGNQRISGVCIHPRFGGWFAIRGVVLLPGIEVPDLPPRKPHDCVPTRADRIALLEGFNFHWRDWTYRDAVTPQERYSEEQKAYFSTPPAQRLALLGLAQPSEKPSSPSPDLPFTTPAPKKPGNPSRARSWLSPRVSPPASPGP
The assay is described as follows: ITC. Background: Isothermal titration calorimetry measures the heat released or taken up as one component is titrated into another.

The molecule H2OCbl yielded a Kd on CblD of 1000 ± 400 nM.

B1: CblD (protein)
chain: SDESHVAAAPPDICSRTVWPDETMGPFGPQDQRFQLPGNIGFDCHLNGTASQKKSLVHKTLPDVLAEPLSSERHEFVMAQYVNEFQGNDAPVEQEINSAETYFESARVECAIQTCPELLRKDFESLFPEVANGKLMILTVTQKTKNDMTVWSEEVEIEREVLLEKFINGAKEICYALRAEGYWADFIDPSSGLAFFGPYTNNTLFETDERYRHLGFSVDDLGCCKVIRHSLWGTHVVVGSIFTNATPDSHIMKKLSGN
modifications: cobalamin
Consider B1, for which the affinity with CblC, expressed as Kd, was 40 nM.

The Kd is a measure of binding affinity in units of concentration. A low value points to higher affinity.
